Assay results as given in patent US12637411B2, “Structurally modified opioids for prevention and treatment of diseases and conditions” (University of Padova, priority 2019, dated 2026).

Tests used:
[1] = Phase 1 Single Ascending Dose (SAD) study
Protocol: The Single Ascending Dose (SAD) study included a parallel group, double-blind, placebo-controlled design. The objectives of the study were to establish PK, PD, and safety of single dose administration. Administration involved cohorts of 5, 20, 60, 100, 150, 200 mg and N=42.

[2] = Phase 1 Multiple Ascending Dose (MAD) study; type: in vivo, healthy opioid-naïve volunteers
Protocol: The objective of the Multiple Ascending Dose (MAD) study was to establish PK, PD, and safety of once daily, 10-day administration. Administration involved cohorts of 25, 50, 75 mg and N=24.

ARPE-19 cells [3] = assay: Relative gene expression (NMDAR1, p65, TNF-α, IL-6) in ARPE-19 cells; type: cell-based; details: pretreatment before 1 mM L-glutamate
Protocol: Once the effect of NMDAR antagonists on nuclear translocation of p65 was verified, in order to confirm their anti-inflammatory effect, the present inventors investigated the changes of gene expression levels of the pro-inflammatory cytokines IL-6 (interleukin-6) and TNF-α, the transcription factor p65 and the NMDA receptor.
The first gene for which the level of gene expression was assessed is the 1A subunit of NMDAR receptor dimer (known as NMDAR1).

[4] = tested on: brain derived neurotrophic factor (BDNF); details: 25 mg, 4 hours after administration, vs pre-treatment
ARPE-19 cells [5] = assay: ROS production in ARPE-19 cells; details: 1 mM L-Glu + 30 μM antagonist; statistical significance not reached
Protocol: This study was conducted also on the retinal cell line ARPE-19 in order to verify how NMDAR activation and blockade influence ROS production.

[6] = Female Urine Sniffing Test (FUST); details: 24 hr after administration, vs. vehicle
[7] = Novelty Suppressed Feeding Test (NSFT); details: 72 hr after administration, vs. vehicle
ARPE-19 cells [8] = assay: ARPE-19 cell viability after L-glutamate; details: pretreatment before 1 mM L-glutamate; dextromethadone 30 microMolar
[9] = Chronic Unpredictable Stress (CUS) protocol with SPT, FUST, NSFT; details: single dose
Source text: The present inventors also performed behavioral analysis of the effect of both d-methadone and ketamine on rats exposed to a Chronic Unpredictable Stress (CUS) protocol.

GluR1 and PSD95 = assay: mTORC1 signaling proteins and synaptic proteins in PFC and hippocampus; details: rat models of depression
Source text: Levels of phospho proteins were normalized to total proteins and levels of synaptic proteins were normalized the GAPDH. Results are the mean±S.E.M., n=10-12/group.

NMDAR = details: cited from earlier work; for trapping: Zanos et al. 2018
[10] = compared to dextromethadone and deuterated dextromethadone (D9, D10, D16), PCT/US2018/016159; cited from earlier work
Forced Swim Test (FST) = type: in vivo; details: drug treated vs. vehicle treated animals; d-methadone 10, 20, 40 mg/kg

Structure (SMILES)	IL-6 gene expression (ARPE-19 cells [3])	NMDAR1 gene expression (ARPE-19 cells [3])	TNF-α gene expression (ARPE-19 cells [3])	ROS production (ARPE-19 cells [5])	effect in the Female Urine Sniffing Test [6]	effect in the Novelty Suppressed Feeding Test [7]	effect on L-glutamate-induced cell viability decrease (ARPE-19 cells [8])	behavioral effects of CUS (SPT, FUST, NSFT) [9]	trapping (NMDAR) [%]	other results
CCC(=O)C(C[C@H](C)N(C)C)(c1ccccc1)c1ccccc1 [dextromethadone]	tendency to decrease	up to 9 times when compared to the expression level of vehicle-treated cells	restored to normal levels	tendency to decrease	significant improvements	significant improvements	protective effect on cell viability	prevented the behavioral effects of CUS		Maximum tolerated dose (MTD) ([1]; single dose): 150 mg; opioid effects ([1]; up to 150 mg): no clinically significant opioid effects; dissociative or psychotomimetic adverse events ([2]; at the tested doses (SAD and MAD)): did not cause dissociative or psychotomimetic adverse events; tolerability ([2]; daily doses up to 75 mg for 10 days (single doses up to 150 mg)): well tolerated; PK: Cmax, AUCtau Day 1; Cmax, AUCtau, Css Day 10 ([2]; once daily 25, 50, 75 mg, 10 days): linear PK with dose proportionality; p65 gene expression (ARPE-19 cells [3]): decrease in gene expression of p65; subjects with an increase in BDNF levels post treatment [4]: 6 of 6; levels of GluR1 and PSD95 (GluR1 and PSD95): increase
C[C@]12N[C@H](Cc3ccccc31)c1ccccc12 [MK-801]	tendency to decrease	only slightly evident	restored to normal levels	tendency to decrease			protective effect on cell viability		100	
c1ccc(C2(N3CCCCC3)CCCCC2)cc1 [PCP]									98	
COc1ccc2c(c1)[C@]13CCCC[C@@H]1[C@H](C2)N(C)CC3 [Dextromethorphan, dextromethorphan]										half-life [10]: significantly shorter half-life
CC12CC3CC(C)(C1)CC(N)(C3)C2 [Memantine, memantine]										off rate (NMDAR; NMDA receptor block): ~5 s; on rate (NMDAR; NMDA receptor block): 1 s
CNC1(c2ccccc2Cl)CCCCC1=O (stereo not shown) [Ketamine, ketamine]					significant improvements	significant improvements		prevented the behavioral effects of CUS	86	effect in the Forced Swim Test (immobility, climbing, swimming counts) (Forced Swim Test (FST)): significant improvements
